The values below come from patent US20240082416A1, “AMATOXIN ANALOGS AND USES THEREOF” (THE UNIVERSITY OF BRITISH COLUMBIA, priority 2020, published 2024).

Each structure is given as a SMILES string. Several values for one entry are separate records, joined by “and”; a condition that tells them apart may be missing. Equal entries are not always repeated. Starred links: 1 amine or outer side, 2 acyl side, 3 side chain; linkers in the order of their positions; H or OH if unused. Positions of bridges follow the written chain, without caps; N, C: chain ends. Non-standard residues stand in square brackets, D forms with d. Residues, ends and D or L forms follow the SMILES beside them. Trp(2-yl) = O=C([C@H](Cc1c([*:3])[nH]c2ccccc12)N[*:1])[*:2]; Pro(4R-SH) = O=C([C@@H]1C[C@@H](S[*:3])CN1[*:1])[*:2]; Ile(4R-OH,5-OH) = C[C@H]([C@H](N)C(=O)O)[C@@H](O)CO; X1 = N#C[C@@H]1C[C@@H](C(=O)[*:2])N([*:1])C1

For orientation: IC50 means the concentration that inhibits the measured activity by half.

The nature of data set [1]: Viability assay against CHO cells (MTT colorimetric assay). Format: cell-based, Chinese hamster. As to conditions: Chinese hamster, CHO cells, 72 h, replicates n = 1, 2, 3, read-out: % viable cells; for viability at 72 h, 1e-05 M: 1e-005 M; for viability at 72 h, 1.25e-06 M: 1.25e-006 M; for viability at 72 h, 1.56e-07 M: 1.56e-007 M; for viability at 72 h, 2e-05 M: 2e-005 M; for viability at 72 h, 2.5e-06 M: 2.5e-006 M; for viability at 72 h, 3.125e-07 M: 3.125e-007 M; for viability at 72 h, 5e-06 M: 5e-006 M; for viability at 72 h, 6.25e-07 M: 6.25e-007 M. The method, then:
(§1) (f) Cell culture: Cells were cultured in Minimum Essential Medium Eagle—Alpha Modification (α-MEM) or […] Dulbecco's Modified Eagle Medium (DMEM), purchased from Gibco. […] All cell culture plastic ware was obtained from Coming or Falcon. Cells were cultured at 37° C. in a humidified chamber with 5% CO2. When used in cell culture, DMSO was purified by filtration through a […] filter. All experiments were carried out in a laminar flow culture cabinet, unless otherwise noted.
(§2) Immortalized CHO cells had been stored in liquid nitrogen. To revive cells, a 1-mL tube of the frozen cells in medium containing 10% DMSO was warmed in a 30° C. water bath and diluted with 9 mL of fresh media. Media contained 10% FBS and 100 U/mL penicillin and […] streptomycin, unless otherwise indicated. The cells were incubated in a T-25 flask at 37° C. at 5% CO2. After 24 hours, the medium was aspirated and replaced with fresh medium. When cells reached a level of 90-100% confluence, they were sub-cultured. […] Once the cells were detached from the tissue culture flask, 3-5 mL media was added to quench the trypsin and the mixture was transferred to a 10 mL centrifuge tube. The mixture was centrifuged for 5 min at […], and the supernatant was discarded. The cells were suspended in fresh medium, diluted as required, and transferred to a new culture flask.
(§3) To assay cell viability, a nearly confluent tissue culture flask was trypsinized, and the cells were counted following treatment with Trypan blue, using a hemocytometer. The cells were then diluted to the appropriate stock concentrations in fresh medium and transferred in 100 μL to a 96-well plate using a multi-channel pipette. The number of cells plated varied from experiment to experiment. These were incubated at 37° C. and 5% CO2 for a 24-hour period to allow for adherence. The medium was aspirated, and fresh medium was added, which contained the desired additives in DMSO. The cells were then re-incubated for 72 h. At the completion of the experiment, a 100 μL aliquot of 25 mg/mL MTT in phosphate-buffered saline (PBS) was added to each well. The plate was incubated three hours further to allow for the formation of the formazan product in viable cells. The media was carefully aspirated, and the purple product was solubilized in DMSO. […] Data was processed in Microsoft Excel and GraphPad Prism. Experiments were performed in triplicates unless otherwise noted, and the error bars were calculated as the standard error of the mean.
(§4) Each cell line was plated in a 96-well plate, with 100 μL of the stock solution per well (5000 cells per well) and incubated for 24 hours. […] The cells were incubated for 72 hours, at which point viability was assessed as described.

For another data set, the system named is CHO cells. Described as above. It counts as cell-based, Chinese hamster. As to conditions: 72 h, replicates n = 1, 2, 3. The protocol: as §1, §2, §3, §4
A further data set concerns the target T1, Pol II (Homo sapiens, UniProt P24928).
T1 construct: HeLaScribe® nuclear extract containing Pol II and all other transcription factors; purchased Promega; host or cells: HeLa nuclear extract (endogenous protein)
The data set can be described thus: In vitro transcription runoff assay using HeLaScribe nuclear extract. It counts as biochemical. Conditions: for Transcription activity E (%): mean ± standard deviation. An excerpt: (h) In vitro transcription assay of synthetic amanitins containing analogs of Hyp: Primers were purchased from IDT via standard phosphoramidite chemistry. dNTP and rNTP were purchased from Thermofisher. GoTaq polymerase and HeLaScribe*Nuclear Extract in vitro Transcription System was purchased from Promega. Taq polymerase was purchased from NEB. [^32P] α-dGTP (3000 Ci/mmol 10 mCi/ml EasyTide) and [^32P] α-GTP (3000 Ci/mmol 10 mCi/ml EasyTide) were purchased from Perkin Elmer. QIAquick PCR purifcation kit was purchased from Qiagen. AcGFP1-N1 was a gift (Addgene plasmid #54705; http://n2t.net/addgene:54705; RRID:Addgene_54705). DNA Primer sequences were:
The DNA template for transcription runoff was synthesized by PCR with template pAcGFP-N1, and primers P1 and P2. To a final volume of 20 μL, 1 x GoTaq Buffer, 250 μM of each dNTP, 500 nM of each primers P1 and P2, […] pAcGFP-N1 and 0.05 U/μL GoTaq were employed to thermocycle for 30 cycles (30 s at 95° C., 30 s at 50° C. and 60 s at 72° C., Bio-Rad). A 1 μL aliquot of the amplified solution was resolved with 6×DNA loading dye in a 1% agarose gel containing […] and then visualized using GelDoc XR imager (Bio-Rad). Purification was completed via QIAquick PCR purification kit (Qiagen). The radioactive chromatographic standard was synthesized by PCR with template pAcGFP-N1, and primers P3 and P4. To a final volume of 50 μL, 1 x Thermopol Buffer, 200 μM of each dNTP, 500 nM of each primers P3 and P4, 10 pg/μL pAcGFP-N1 and 0.02 U/μL Vent polymerase, 1 μL [^32P] α-dGTP were employed to thermocycle for 30 cycles (30 s at 95° C., 30 s at 62° C. and 30 s at 72° C., Bio-Rad). A 1 μL aliquot of the amplified solution was resolved with 6×DNA loading dye in 8% denaturing PAGE and then visualized by autoradiography via the Typhoon 9200 imager (Molecular namics-Amersham-GE). Purification was completed via QIAquick PCR purification kit (Qiagen). The transcription runoff assay was modified from HeLaScribe® Nuclear Extract in vitro Transcription System (Promega). […]. The pellet was resolved by 8% denaturing PAGE and then visualized by autoradiography via the Typhoon 9200 imager (Molecular dynamics-Amersham-GE). Dosimetry was calculated by ImageJ, and the 3 parameter logistic fit was completed by Origin 2019 (OriginLab). […]
All data were presented in mean±standard deviation (n=3).

[2] abbreviates: IC50 (nM), Table 11, 3 parameter logistic fit.
Where [3] appears, read: IC50 (nM), Table 12, n = 3, high values estimated from activity at [I]=1.0 μM.

On to `CC[C@H](C)[C@@H]1NC(=O)CNC(=O)[C@@H]2Cc3c([nH]c4ccccc34)SC[C@H](NC(=O)CNC1=O)C(=O)N[C@@H](CC(N)=O)C(=O)N1C[C@H](C#N)C[C@H]1C(=O)N[C@@H]([C@@H](C)[C@@H](O)CO)C(=O)N2` [Compound 4, CN-Pro-amanitin] (cyclo(CN[X1][Ile(4R-OH,5-OH)][Trp(2-yl)]GIG); thioether 1-5), for which the viability at 72 h, 1e-05 M in data set [1] amounted to 110%. For the same molecule, the viability at 72 h, 1.25e-06 M in data set [1] worked out at 102%. In addition, the viability at 72 h, 1.56e-07 M in data set [1] was found to be 102%. Also, in data set [1], the viability at 72 h, 2e-05 M worked out at 121%. Also, the viability at 72 h, 2.5e-06 M in data set [1] is 101%. In addition, in data set [1], the viability at 72 h, 3.125e-07 M is 99%. Also, the viability at 72 h, 5e-06 M in data set [1] came to 103%. In addition, in data set [1], the viability at 72 h, 6.25e-07 M is 102%. Besides, the “% viable cells” value in the data set with CHO cells (1e-005 M, listed as CN-Pro-amanitin (4)) was 90%; in the data set with CHO cells (1.25e-006 M, listed as CN-Pro-amanitin (4)), 91% and 92%; with CHO cells (1.56e-007 M, listed as CN-Pro-amanitin (4)), 93% and 87%; with CHO cells (2e-005 M, listed as CN-Pro-amanitin (4)), 118% and 108%; with CHO cells (2.5e-006 M, listed as CN-Pro-amanitin (4)) it was 91% and 87%; in the data set with CHO cells (3.125e-007 M, listed as CN-Pro-amanitin (4)) it was 92% and 90%. For the same molecule, the “% viable cells” value is 92% and 90% with CHO cells (5e-006 M, listed as CN-Pro-amanitin (4)); 89% and 92% with CHO cells (6.25e-007 M, listed as CN-Pro-amanitin (4)). Moreover, the “Transcription activity E (%)” value stood at 80.7 ± 7.9% at Pol II (10 nM); 64.8 ± 7.4% at Pol II (30 nM); 74.0 ± 13.0% on Pol II (100 nM); 72.4 ± 9.7% on Pol II (300 nM); 52.3 ± 17.0% on Pol II (1000 nM). Also, the IC50 against Pol II (setting [2]) and on Pol II (setting [3]) was 480 ± 380 nM each time.

Turning to `CC[C@H](C)[C@@H]1NC(=O)CNC(=O)[C@@H]2Cc3c([nH]c4ccccc34)SC[C@H](NC(=O)CNC1=O)C(=O)N[C@@H](CC(N)=O)C(=O)N1C[C@H](S)C[C@H]1C(=O)N[C@@H]([C@@H](C)[C@@H](O)CO)C(=O)N2` [Compound 5, SH-Pro-amanitin] (cyclo(CN[Pro(4R-SH)][Ile(4R-OH,5-OH)][Trp(2-yl)]GIG); thioether 1-5), in data set [1], the viability at 72 h, 1e-05 M turned out to be 94%. Further, the viability at 72 h, 1.25e-06 M in data set [1] came to 93%. In addition, the viability at 72 h, 1.56e-07 M in data set [1] came out at 93%. In addition, the viability at 72 h, 2e-05 M in data set [1] came out at 106%. In addition, in data set [1], the viability at 72 h, 2.5e-06 M is 91%. Besides, the viability at 72 h, 3.125e-07 M in data set [1] amounted to 94%. The viability at 72 h, 5e-06 M in data set [1] turned out to be 100%. Further, in data set [1], the viability at 72 h, 6.25e-07 M was 98%. In addition, in data set [1] (7.8e-008 M), the viability at 72 h, 7.8e-08 M turned out to be 94%. The “% viable cells” value in the data set with CHO cells (1e-005 M, listed as SH-Pro-amanitin (5)) is 95%; with CHO cells (1.25e-006 M, listed as SH-Pro-amanitin (5)), 92%; in the data set with CHO cells (2e-005 M, listed as SH-Pro-amanitin (5)) it was 97%; in the data set with CHO cells (2.5e-006 M, listed as SH-Pro-amanitin (5)) it was 99%; in the data set on CHO cells (3.125e-007 M, listed as SH-Pro-amanitin (5)), 90%; in the data set with CHO cells (5e-006 M, listed as SH-Pro-amanitin (5)), 90% and 96%. In addition, the “% viable cells” value in the data set on CHO cells (6.25e-007 M, listed as SH-Pro-amanitin (5)) was 92% and 95%; in the data set with CHO cells (7.8e-008 M, listed as SH-Pro-amanitin (5)), 89%. Further, the “Transcription activity E (%)” value was 78.5 ± 26.6% at Pol II (10 nM); 99.6 ± 11.6% on Pol II (30 nM); 91.2 ± 18.5% at Pol II (100 nM); 71.2 ±19.0% on Pol II (300 nM); 50.3 ± 20.8% at Pol II (1000 nM). Further, the IC50 against Pol II (IC50) is 910 ± 230 nM; against Pol II (setting [2]), 910 ± 330 nM; on Pol II (setting [3]), 910 ± 330 nM.
